The structures appear in SMILES notation.

Series [1] can be described thus: Rat pharmacokinetic study (IV and PO). The series is classed as in vivo. The note with it: for AUC(0-t) / Cmax / MRT / clearance / half-life / Tmax / bioavailability: blood; for bioavailability: PO 10 mg/kg vs IV 5 mg/kg, read-out: Fpo (oral bioavailability). The protocol:
(§1) Active mTOR inhibitors in enzymatic and/or cell-based assays herein were evaluated for pharmacokinetic properties. Preferable compounds are with pharmacokinetic properties of low clearance, long half-life and/or good oral bioavailability (Fpo). In vitro, selected example compounds were evaluated for metabolic stability by incubating with human liver microsome (HLM) for 60 min. Compounds that were metabolized slower (i.e. higher % remaining) are preferred. […] The more metabolic stable example compounds in the HLM assay were further evaluated for pharmacokinetic properties in vivo. In a representative experiment, selected example compounds were dosed to rats intravenously (IV, 5 mg/kg, 30% PEG400+30% PG+1% DMSO in saline) and orally (PO, 10 mg/kg, 2.4% DMSO+0.1% Tween80 in 0.5% CMC-Na), rat blood samples were taken at designed time points after dosing and analyzed for tested drug concentrations using LC-MS/MS. Pharmacokinetic parameters were derived from the time curve of drug concentrations.

The nature of series [2]: Metabolic stability in human liver microsome (HLM). The series is classed as in vitro ADME. The note with it: incubation with human liver microsome for 60 min. On the procedure:
as §1

Series [3] has as its system mammalian tumor cell lines such as PC-3, LNCAP, U87, Huh-7, HepG2 and MDA-MB-468. The series can be described thus: Cell proliferation/survival MTT assay in tumor cell lines. The series is classed as cell-based. The note with it: 5 days (120 h) culture; cell line not specified; read-out: IC50, inhibition of tumor cell growth (MTT). On the procedure: The cytotoxic or cytostatic activity of Formula I-III exemplary compounds was measured by establishing proliferating mammalian tumor cell lines such as PC-3, LNCAP, U87, Huh-7, HepG2 and MDA-MB-468 in a cell culture medium, adding a test compound, culturing the cells for a period of 5 days by measuring cell viability via MTT assays. Dose response data were obtained for each test compound and the degree of inhibition of tumor cell growth was expressed as an IC50 value. […] For example. For example, compounds of example 14, 15, 46,29, 45, 49, 122, 88, 54, 55, 58, 59, 63, 64, 66, 67, 68, 113, 86, 90.
PC-3 (or U87) cells were seeded in 96-well plates at low density (at 2,000 cells per well) in media supplemented with 10% FBS (growth media) and transferred to serum-free media (1% FBS) after 24 h. Designated concentrations of drug were added to each well. The cells were incubated for 120 h. At the end of drug exposure, 20 μL/well of MTT solution was added. After 4 h at 37° C. in a humidified 5% CO2 atmosphere, the absorbance at 490 nm was recorded by using a microplate reader. IC50 was calculated using GraphPad Prism version 5 for Windows. The curves were fit using a nonlinear regression model with a log (inhibitor) versus response formula.
(Tetrazolium assays rely on reduction of a dye to a coloured formazan, in cell work by metabolically active cells.)

The target in series [4] is mTOR (FRAP1) (Homo sapiens, UniProt P42345). As to the kind of experiment: SelectScreen Profiling, Z'-LYTE kinase assay, mTOR (FRAP1). The series is classed as biochemical. The note with it: 0.1 μM compound, ATP at Km, read-out: mTOR inh% @0.1 μM. From the text:
Some of the example compounds were submitted to Life Technologies Corporation SelectScreen® Profiling Service to test their potency in inhibiting the kinase catalytic activities of mTOR, PI3Kα, VEGF2, FGFR1, HER1 (EGFR) and HER2. A concentration of ATP at the Km of the corresponding kinase was used for all assays. The mTOR (FRAP1), VEGF2, FGFR1, HER1 (EGFR) and HER2 assays used Z′-LYTE® technology. The PI3Kα assay used Adapta® technology. The symbol “inh %” as used herein generally refers to inhibition percentage.

As a reminder, the AUC(0-t) is exposure summed from dosing to a finite time, without extrapolation to infinity. Lower therefore signals less exposure. As usually defined, the Cmax is the highest concentration seen after dosing. The MRT is a mean duration of stay, worked out from the concentration-time curve. For orientation: half-life means the time in which the quantity being followed falls by half. A word on the Tmax: it is the time at which the peak concentration occurs. For orientation: bioavailability means the share of a dose that reaches the circulation, judged against a reference dose that is usually intravenous. `O=C(NCCO)Nc1ccc(-c2nc(N3C[C@H]4CC[C@@H](C3)O4)c3cccn3n2)cc1` [Example 127]: in series [1] (PO 10 mg/kg), the CL is 6.772 L/h/kg, the AUC(0-t) worked out at 1400 ng·h/mL, the Cmax came out at 296 ng/mL and the MRT stood at 5.11 h. Besides, in series [1] (PO 10 mg/kg), the Tmax turned out to be 0.417 h and the half-life was 198 min. In series [1] (IV 5 mg/kg), this compound showed an AUC(0-t) of 3420 ng·h/mL, a Cmax of 3380 ng/mL, a mean residence time (MRT) of 1.3 h and a clearance of 24.4 mL/min/kg. This compound also had a half-life in series [1] (IV 5 mg/kg) of 88 min. Besides, in series [1], the bioavailability worked out at 22%. The “metabolic stability in HLM” value in series [2] is on record as “metabolically stable”.
By IC50 is commonly meant the concentration that gives 50% inhibition. Turning to `OCCNC(=S)Nc1ccc(-c2nc(N3CCOCC3)c3cccn3n2)cc1` [Example 113], in series [3], the IC50 is < 500 nM.
For `CS(=O)(=O)N1CCN(Cc2cc3nc(-c4cccc5[nH]ncc45)nc(N4CCOCC4)c3s2)CC1` [GDC0941, reference compound], in series [4], the inhibition at 0.1 µM is 6%.
As to `C[C@@H]1COCCN1c1nc(-c2ccc(NC(=O)Nc3ccc(C(=O)N4CC[C@@H](O)C4)cc3)cc2)nn2cccc12` [Example 88], in series [3], the IC50 is < 500 nM.
For the compound `CNC(=O)c1ccc(NC(=O)Nc2ccc(-c3nc(N4CCOCC4)c4cccn4n3)cc2)cc1F` [Example 61], the inhibition at 0.1 µM in series [4] stood at 71%.
Turning to `C[C@@H]1COCCN1c1nc(-c2ccc(NC(=O)Nc3ccc(C(=O)N4CC[C@H](O)C4)cc3)cc2)nn2cccc12` [Example 89], the “metabolic stability in HLM” value in series [2] is recorded as “metabolically stable”.
As for `CC(C)(C)C(=O)OCCNC(=O)Nc1ccc(-c2nc(N3CCOCC3)c3cccn3n2)cc1` [Example 128], in series [1] (PO 10 mg/kg), the CL was 1.503 L/h/kg, the AUC(0-t) stood at 7290 ng·h/mL, the Cmax was 1520 ng/mL and the mean residence time MRT came to 3.45 h. In series [1] (PO 10 mg/kg), the Tmax turned out to be 1.67 h and the half-life was 114 min. Further, the bioavailability in series [1] was determined as 22%.
On to `CN(C)C1CN(C(=O)c2ccc(NC(=O)Nc3ccc(-c4nc(N5CCOCC5)c5cccn5n4)cc3)cc2)C1` [Example 86], for which the half-maximal inhibitory concentration (IC50) in series [3] was < 500 nM. Also, the inhibition at 0.1 µM in series [4] turned out to be 82%.
Consider `O=C(Nc1ccc(-c2nc(N3CCOCC3)c3cccn3n2)cc1)Nc1ccc(CO)nc1` [Example 96], for which the “metabolic stability in HLM” value in series [2] was “metabolically stable”.
Consider `O=C(Nc1ccc(C(=O)N2CC[C@H](O)C2)cc1)Nc1ccc(-c2nc(N3CCOCC3)c3cccn3n2)cc1` [Example 68], for which the IC50 in series [3] was < 500 nM. Also, the inhibition at 0.1 µM in series [4] is 86%.
For `CN1CCN(CCNC(=O)c2ccc(NC(=O)Nc3ccc(-c4nc(N5CCOCC5)c5cccn5n4)cc3)cc2)CC1` [Example 49], in series [3], the half-inhibitory concentration (IC50) was < 500 nM. Further, the inhibition at 0.1 µM in series [4] worked out at 88%.
`O=C(Nc1ccc(C(=O)N2CCNCC2)cc1)Nc1ccc(-c2nc(N3CCOCC3)c3cccn3n2)cc1` [Example 56]: the inhibition at 0.1 µM in series [4] was 88%. In addition, the “metabolic stability in HLM” value in series [2] was “metabolically stable”.
In the case of `CC(C)(O)c1ccc2c(N3CCOCC3)nc(-c3ccc(NC(=O)Nc4cccnc4)cc3)nn12` [Example 63], in series [3], the IC50 is < 500 nM. Also, the inhibition at 0.1 µM in series [4] was found to be 71%.
For `CN(C)C1CCN(C(=O)c2ccc(NC(=O)Nc3ccc(-c4nc(N5CCOCC5)c5ccc(C(C)(C)O)n5n4)cc3)cc2)CC1` [Example 90], the half-inhibitory concentration (IC50) in series [3] was < 500 nM.
Regarding `S=C(Nc1ccc(-c2nc(N3CCOCC3)c3cccn3n2)cc1)Nc1cccnc1` [Example 106], in series [1] (PO 10 mg/kg), the CL turned out to be 0.247 L/h/kg, the AUC(0-t) was determined as 73400 ng·h/mL, the Cmax came out at 9990 ng/mL and the MRT worked out at 5.68 h. For the same compound, in series [1] (PO 10 mg/kg), the time of peak concentration (Tmax) is 2.5 h and the half-life is 195 min. Also, in series [1] (IV 5 mg/kg), the AUC(0-t) was 41500 ng·h/mL, the Cmax came to 21200 ng/mL, the MRT was 1.67 h and the clearance was 2.03 mL/min/kg. Moreover, the half-life in series [1] (IV 5 mg/kg) is 85 min. Also, the bioavailability in series [1] was determined as 89%. Also, the “metabolic stability in HLM” value in series [2] is reported as “metabolically stable”.

(Values after US11242346B2, “Mechanistic target of rapamycin signaling pathway inhibitors and therapeutic applications thereof” (SUZHOU KINTOR PHARMACEUTICALS, INC., priority 2016, dated 2022).)
